Source: ChEMBL document CHEMBL3399921, “Novel 2-(2-phenalkyl)-1H-benzo[d]imidazoles as antitubercular agents. Synthesis, biological evaluation and structure-activity relationship” (Bioorg Med Chem, 2015)
In brackets after ≈: the same amount, converted by molar mass.

What was measured:
[1] = Selectivity ratio of IC50 for neonatal HDF cells to MIC for Mycobacterium tuberculosis Spec. 210; type: ADME, cell-based; conditions: human
[2] = Selectivity ratio of IC50 for mouse B16F10 cells to MIC for Mycobacterium tuberculosis Spec. 210; type: ADME, cell-based, B16-F10
[3] = tested on: Mycobacterium tuberculosis; experiment: Tuberculostatic activity against Mycobacterium tuberculosis H37Rv by two-fold classical test-tube method; type: functional
[4] = Cytotoxicity against HEK cells after 7 days by MTT/SRB assay; type: cell-based; conditions: Homo sapiens, HEK293, 168 h
[5] = Selectivity ratio of IC50 for neonatal HDF cells to MIC for Mycobacterium tuberculosis Spec. 192; type: ADME, cell-based; conditions: human
[6] = Cytotoxicity against mouse B16F10 cells after 7 days by MTT/SRB assay; type: cell-based; conditions: B16-F10, 168 h
[7] = tested on: Mycobacterium tuberculosis; experiment: Tuberculostatic activity against Mycobacterium tuberculosis Spec. 210 by two-fold classical test-tube method; type: functional
[8] = Cytotoxicity against neonatal HDF cells after 7 days by MTT/SRB assay; type: cell-based; conditions: Homo sapiens, 168 h
[9] = tested on: Mycobacterium tuberculosis; experiment: Tuberculostatic activity against Mycobacterium tuberculosis Spec. 192 by two-fold classical test-tube method; type: functional
[10] = Selectivity ratio of IC50 for mouse B16F10 cells to MIC for Mycobacterium tuberculosis Spec. 192; type: ADME, cell-based, B16-F10
[11] = Selectivity ratio of IC50 for mouse B16F10 cells to MIC for Mycobacterium tuberculosis H37Rv; type: ADME, cell-based, B16-F10
[12] = Selectivity ratio of IC50 for neonatal HDF cells to MIC for Mycobacterium tuberculosis H37Rv; type: ADME, cell-based; conditions: human

Row | Compound | MIC [3] [µM] | MIC [7] [µM] | MIC [9] [µM] | other results
1 | Cc1cc2nc(CCc3cc(Cl)cc(Cl)c3)[nH]c2cc1C | 2.5 (≈ 0.798 µg/mL) | 5 (≈ 1.6 µg/mL) | 5 (≈ 1.6 µg/mL) | selectivity ratio [1]: > 11; selectivity ratio [2]: 6; IC50 [4]: 7.8 µM; selectivity ratio [5]: > 11; IC50 [6]: 28 µM; IC50 [8]: 58 µM; selectivity ratio [10]: 6
2 | Nc1c(NC(=O)CCc2ccccc2)cc(Cl)cc1[N+](=O)[O-] | 320 (≈ 102 µg/mL) | 320 (≈ 102 µg/mL) | 320 (≈ 102 µg/mL) | 
3 | Nc1c(NC(=O)/C=C/c2ccccc2)cc(Cl)cc1[N+](=O)[O-] | 320 (≈ 102 µg/mL) | 320 (≈ 102 µg/mL) | 320 (≈ 102 µg/mL) | 
4 | Nc1c(NC(=O)CCc2cc(Cl)cc(Cl)c2)cc(Cl)cc1[N+](=O)[O-] | 8 (≈ 3.11 µg/mL) | 65 (≈ 25.3 µg/mL) | 8 (≈ 3.11 µg/mL) | selectivity ratio [11]: 7.5; selectivity ratio [12]: 10; IC50 [4]: 5.1 µM; selectivity ratio [5]: 10; IC50 [6]: 59 µM; IC50 [8]: 80 µM; selectivity ratio [10]: 7.5
5 | O=[N+]([O-])c1cc(Cl)cc2[nH]c(CCc3ccccc3)nc12 | 330 (≈ 99.6 µg/mL) | 330 (≈ 99.6 µg/mL) | 330 (≈ 99.6 µg/mL) | 
6 | O=[N+]([O-])c1cc(Cl)cc2[nH]c(/C=C/c3ccccc3)nc12 | 170 (≈ 51 µg/mL) | 340 (≈ 102 µg/mL) | 170 (≈ 51 µg/mL) | 
7 | O=[N+]([O-])c1cc(Cl)cc2[nH]c(CCc3cc(Cl)cc(Cl)c3)nc12 | 68 (≈ 25.2 µg/mL) | 271 (≈ 100 µg/mL) | 68 (≈ 25.2 µg/mL) | 
8 | c1ccc(CCc2nc3cc4ccccc4cc3[nH]2)cc1 | 370 (≈ 101 µg/mL) | 370 (≈ 101 µg/mL) | 370 (≈ 101 µg/mL) | 
9 | C(=C\c1nc2cc3ccccc3cc2[nH]1)/c1ccccc1 | 93 (≈ 25.1 µg/mL) | 93 (≈ 25.1 µg/mL) | 93 (≈ 25.1 µg/mL) | 
10 | Clc1cc(Cl)cc(CCc2nc3cc4ccccc4cc3[nH]2)c1 | 18 (≈ 6.14 µg/mL) | 18 (≈ 6.14 µg/mL) | 18 (≈ 6.14 µg/mL) | 
11 | Cc1cc2nc(CCc3ccccc3)[nH]c2cc1C | 6.3 (≈ 1.58 µg/mL) | 6.3 (≈ 1.58 µg/mL) | 6.3 (≈ 1.58 µg/mL) | IC50 [4]: 2.5 µM; IC50 [6]: 3.9 µM; IC50 [8]: 7.9 µM
12 | Cc1cc2nc(/C=C/c3ccccc3)[nH]c2cc1C | 25 (≈ 6.21 µg/mL) | 25 (≈ 6.21 µg/mL) | 13 (≈ 3.23 µg/mL) | 
13 | Fc1ccc2[nH]c(CCc3ccccc3)nc2c1 | 104 (≈ 25 µg/mL) | 208 (≈ 50 µg/mL) | 208 (≈ 50 µg/mL) | 
14 | Fc1ccc2[nH]c(/C=C/c3ccccc3)nc2c1 | 210 (≈ 50 µg/mL) | 105 (≈ 25 µg/mL) | 210 (≈ 50 µg/mL) | 
15 | Fc1ccc2[nH]c(CCc3cc(Cl)cc(Cl)c3)nc2c1 | 320 (≈ 98.9 µg/mL) | 320 (≈ 98.9 µg/mL) | 320 (≈ 98.9 µg/mL) | 
16 | Cc1cc2nc(CCc3ccccc3)n(S(C)(=O)=O)c2cc1C | 76 (≈ 25 µg/mL) | 76 (≈ 25 µg/mL) | 76 (≈ 25 µg/mL) | 
17 | Cc1cc2nc(/C=C/c3ccccc3)n(S(C)(=O)=O)c2cc1C | 310 (≈ 101 µg/mL) | 310 (≈ 101 µg/mL) | 310 (≈ 101 µg/mL) | 
18 | Cc1cc2nc(CCc3cc(Cl)cc(Cl)c3)n(S(C)(=O)=O)c2cc1C | 32 (≈ 12.7 µg/mL) | 32 (≈ 12.7 µg/mL) | 63 (≈ 25 µg/mL) | 
19 | CS(=O)(=O)n1c(CCc2ccccc2)nc2cc(F)ccc21 | 314 (≈ 100 µg/mL) | 314 (≈ 100 µg/mL) | 314 (≈ 100 µg/mL) | 
20 | CS(=O)(=O)n1c(/C=C/c2ccccc2)nc2cc(F)ccc21 | 158 (≈ 50 µg/mL) | 158 (≈ 50 µg/mL) | 158 (≈ 50 µg/mL) | 
21 | CS(=O)(=O)n1c(/C=C/c2cc(Cl)cc(Cl)c2)nc2cc(F)ccc21 | 130 (≈ 50.1 µg/mL) | 130 (≈ 50.1 µg/mL) | 259 (≈ 99.8 µg/mL) | 
22 | Cc1cc2nc(CCc3ccccc3)n(S(=O)(=O)c3ccccc3)c2cc1C | 128 (≈ 50 µg/mL) | 128 (≈ 50 µg/mL) | 64 (≈ 25 µg/mL) | 
23 | Cc1cc2nc(/C=C/c3ccccc3)n(S(=O)(=O)c3ccccc3)c2cc1C | 258 (≈ 100 µg/mL) | 258 (≈ 100 µg/mL) | 258 (≈ 100 µg/mL) | 
24 | Cc1cc2nc(CCc3cc(Cl)cc(Cl)c3)n(S(=O)(=O)c3ccccc3)c2cc1C | 55 (≈ 25.3 µg/mL) | 55 (≈ 25.3 µg/mL) | 55 (≈ 25.3 µg/mL) | 
25 | O=S(=O)(c1ccccc1)n1c(CCc2ccccc2)nc2cc(F)ccc21 | 263 (≈ 100 µg/mL) | 263 (≈ 100 µg/mL) | 263 (≈ 100 µg/mL) | 
26 | O=S(=O)(c1ccccc1)n1c(/C=C/c2ccccc2)nc2cc(F)ccc21 | 132 (≈ 50 µg/mL) | 264 (≈ 99.9 µg/mL) | 132 (≈ 50 µg/mL) | 
27 | O=S(=O)(c1ccccc1)n1c(CCc2cc(Cl)cc(Cl)c2)nc2cc(F)ccc21 | 56 (≈ 25.2 µg/mL) | 56 (≈ 25.2 µg/mL) | 112 (≈ 50.3 µg/mL) | 
28 | NNC(=O)c1ccncc1 [ISONIAZID] | 91 (≈ 12.5 µg/mL) | 182 (≈ 25 µg/mL) | 91 (≈ 12.5 µg/mL) | 
29 | NC(=O)c1cnccn1 [PYRAZINAMIDE] | 203 (≈ 25 µg/mL) | 3250 (≈ 400 µg/mL) | 203 (≈ 25 µg/mL) | 
30 | CO[C@H]1/C=C/O[C@@]2(C)Oc3c(C)c(O)c4c(O)c(c(/C=N/N5CCN(C)CC5)c(O)c4c3C2=O)NC(=O)/C(C)=C\C=C\[C@H](C)[C@H](O)[C@@H](C)[C@@H](O)[C@@H](C)[C@H](OC(C)=O)[C@@H]1C [RIFAMPIN] | 1.4 (≈ 1.15 µg/mL) | 2.8 (≈ 2.3 µg/mL) | 1.4 (≈ 1.15 µg/mL) | 
